From patent US20130096135A1, “Selected Inhibitors of Protein Tyrosine Kinase Activity” (METHYLGENE INC., priority 2011, published 2013)
≈ marks a conversion by molar mass, not a printed value.

Experiments:
[1] = target: T1, VEGF receptor KDR (VEGFR2) (Homo sapiens, UniProt P35968); assay: In vitro receptor tyrosine kinase assay (VEGF receptor KDR), DELFIA; type: biochemical; settings: recombinant GST-VEGFR2 (806-1356), ATP 0.6 uM, enzyme 5 nM; read-out: VEGFR_IC50_UM
T1 construct: made in house; host or cells: Sf9 cells (Spodoptera frugiperda), baculovirus
T1 sequence (P35968 806-1356): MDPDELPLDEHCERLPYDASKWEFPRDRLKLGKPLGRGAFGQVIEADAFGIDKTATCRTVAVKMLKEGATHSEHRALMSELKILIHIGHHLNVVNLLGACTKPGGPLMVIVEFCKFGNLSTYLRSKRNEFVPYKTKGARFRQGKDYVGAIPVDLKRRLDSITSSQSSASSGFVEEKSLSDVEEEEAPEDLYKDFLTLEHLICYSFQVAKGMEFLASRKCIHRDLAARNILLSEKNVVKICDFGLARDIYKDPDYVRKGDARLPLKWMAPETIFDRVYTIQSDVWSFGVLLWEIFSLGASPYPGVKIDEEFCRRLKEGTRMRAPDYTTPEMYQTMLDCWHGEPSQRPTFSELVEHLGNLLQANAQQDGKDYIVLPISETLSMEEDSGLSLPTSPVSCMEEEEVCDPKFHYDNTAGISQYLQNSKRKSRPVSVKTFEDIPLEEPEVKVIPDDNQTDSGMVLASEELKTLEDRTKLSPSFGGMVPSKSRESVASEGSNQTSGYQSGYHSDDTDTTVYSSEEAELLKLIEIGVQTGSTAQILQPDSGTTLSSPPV
Excerpt: In Vitro Receptor Tyrosine Kinase Assay (VEGF receptor KDR)
This test measures the ability of compounds to inhibit the enzymatic activity of recombinant human VEGF receptor enzymatic activity.
A 1.6-kb cDNA corresponding to the catalytic domain of VEGFR2 (KDR) (Genbank accession number AF035121 amino acid 806 to 1356) is cloned into the Pst I site of the pDEST20 Gateway vector (Invitrogen) for the production of a GST-tagged version of that enzyme. This construct is used to generate recombinant baculovirus using the Bac-to-Bac™ system according to the manufacturer's instructions (Invitrogen).
The GST-VEGFR2806-1356 protein is expressed in Sf9 cells (Spodoptera frugiperda) upon infection with recombinant baculovirus construct. Briefly, Sf9 cells grown in suspension and maintained in serum-free medium (Sf900 II supplemented with gentamycin) at a cell density of about 2×10^6 cells/ml are infected with the above-mentioned viruses at a multiplicity of infection (MOI) of 0.1 during 72 hours at 27° C. with agitation at 120 rpm on a rotary shaker. Infected cells are harvested by centrifugation at 398g for 15 min. Cell pellets are frozen at −80° C. until purification is performed.
All steps described in cell extraction and purification are performed at 4° C. Frozen Sf9 cell pellets infected with the GST-VEGFR2806-1356 recombinant baculovirus are thawed and gently resuspended in Buffer A (PBS pH 7.3 supplemented with 1 μg/ml pepstatin, 2 μg/ml Aprotinin and leupeptin, 50 μg/ml PMSF, 50 μg/ml TLCK and 10 μM E64 and 0.5 mM DTT) using 3 ml of buffer per gram of cells. Suspension is Dounce homogenized and 1% Triton X-100 is added to the homogenate after which it is centrifuged at 22500 g, 30 min., 4 °C. The supernatant (cell extract) is used as starting material for purification of GST-VEGFR2806-1356.
The supernatant is loaded onto a GST-agarose column (Sigma) equilibrated with PBS pH 7.3. Following a four column volume (CV) wash with PBS pH 7.3+1% Triton X-100 and 4 CV wash with buffer B (50mM Tris pH 8.0, 20% glycerol and 100mM NaCl), bound proteins are step eluted with 5 CV of buffer B supplemented with 5 mM DTT and 15 mM glutathion. GST-VEGFR2806-1356 enriched fractions from this chromatography step are pooled based on U.V. trace i.e. fractions with high 0.D.280. Final GST-VEGFR2806-1356 protein preparations concentrations are about 0.7 mg/ml with purity approximating 70%. Purified GST-VEGFR2806-1356 protein stocks are aliquoted and frozen at −80° C. prior to use in enzymatic assay.
Inhibition of VEGFR/KDR is measured in a DELFIATM assay (Perkin Elmer). The substrate poly(Glu4, Tyr) is immobilized onto black high-binding polystyrene 96-well plates. The coated plates are washed and stored at 4° C. During the assay, the enzyme is pre-incubated with inhibitor and Mg-ATP on ice in polypropylene 96-well plates for 4 minutes, and then transferred to the coated plates. The subsequent kinase reaction takes place at 30° C. for 10-30 minutes. ATP concentrations in the assay are 0.6 uM for VEGFR/KDR (2× the Km). Enzyme concentration is 5 nM. After incubation, the kinase reactions are quenched with EDTA and the plates are washed. Phosphorylated product is detected by incubation with Europium-labeled anti-phosphotyrosine MoAb. After washing the plates, bound MoAb is detected by time-resolved fluorescence in a Gemini SpectraMax reader (Molecular Devices). Compounds are evaluated over a range of concentrations, and IC50 values (concentration of compounds giving 50% inhibition of enzymatic activity) are determined.

[2] = Solubility measurements in PBS (pH 7.4), filtration, HPLC-UV; type: physicochemical; settings: PBS (pH 7.4) with 1% DMSO, aqueous buffer, kinetic from dmso stock, PBS pH 7.4, 100 μM test substance, room temperature
Protocol: The solubility of each substance was assessed using MultiScreen® HTS 96-well filtration system (filter; polycarbonate, pore size; 0.4 μm, Millipore). DMSO stock solutions of each test substance (10 mM) were prepared to initiate the assay. The equilibration was performed in PBS (pH 7.4) containing 100 μM of a test substance and 1% DMSO, for 24 hours at room temperature with shaking The concentrations of test substances in each filtrate were determined by HPLC-UV.
HPLC conditions were following:
Waters ACQUITY UPLC H class instrument.
Eluent A: 10 mM aqueous Ammonium formate
Eluent B: 0.1 volume % formic acid in acetonitrile
Flow: 1 mL/min, UV: 316 nm

Structure (SMILES)	IC50 [1] [nM]	solubility at 24 h [2] [µM]
CCCC(=O)OCC(=O)N1CCN(Cc2ccc(-c3cc4nccc(Oc5ccc(NC(=O)NC6CC6)cc5F)c4s3)nc2)CC1 [Compound 79, 2-(4-((6-(7-(4-(3-Cyclopropylureido)-2-fluorophenoxy)thieno[3,2-b]pyridin-2-yl)pyridin-3-yl)methyl)piperazin-1-yl)-2-oxoethyl butyrate]	19	–
CC(C)C(=O)OCC(=O)N1CCN(Cc2ccc(-c3cc4nccc(Oc5ccc(NC(=O)NC6CC6)cc5F)c4s3)nc2)CC1 [Compound 80, 2-(4-((6-(7-(4-(3-Cyclopropylureido)-2-fluorophenoxy)thieno[3,2-b]pyridin-2-yl)pyridin-3-yl)methul)piperazin 1-yl)-2-oxoethyl isobutrate]	20	–
O=C(Nc1ccc(Oc2ccnc3cc(-c4ccc(CN5CCN(C(=O)CS)CC5)cn4)sc23)c(F)c1)NC1CC1 [Compound 114, 1-Cyclopropyl-3-(3-fluoro-4-(2-(5-((4-(2-mercaptoacetyl)piperazin-1-yl)methyl)pyridin-2-yl)thieno[3,2-b]pyridin-7-yloxy)phenyl)urea]	10	–
O=C(Nc1ccc(Oc2ccnc3cc(-c4ccc(CN5CCN(C(=O)COC(=O)CCCC[C@H]6SC[C@H]7NC(=O)N[C@H]76)CC5)cn4)sc23)c(F)c1)NC1CC1 [Compound 120, 2-(4-((6-(7-(4-(3-Cyclopropylureido)-2-fluorophenoxy)thieno[3,2-b]pyridin-2-yl)pyridin-3-yl)methyl)piperazin-1-yl)-2-oxoethyl 5-((3aR,4R,6aS)-2-oxohexahydro-1H-thieno[3,4-d]imidazol-4-yl)pentanoate]	21	–

Stronger by IC50 [1], values ahead:

IC50 [1] [nM]	solubility at 24 h [2] [µM]	Structure (SMILES)
8	–	C[C@@H]1CN(Cc2ccc(-c3cc4nccc(Oc5ccc(NC(=O)NC6CC6)cc5F)c4s3)nc2)CCN1CCO [Compound 119, (R)-1-cyclopropyl-3-(3-fluoro-4-(2-(5-((4-(2-hydroxyethyl)-3-methylpiperazin-1-yl)methyl)pyridin-2-yl)thieno[3,2-b]pyridin-7-yloxy)phenyl)urea]
4	6.46 (≈ 3.73 µg/mL)	C[C@H](O)CN1CCN(Cc2ccc(-c3cc4nccc(Oc5ccc(NC(=O)NC6CC6)cc5F)c4s3)nc2)CC1 [Compound 30]
1	1.19 (≈ 0.72 µg/mL)	CC(C)(O)C(=O)N1CCN(Cc2ccc(-c3cc4nccc(Oc5ccc(NC(=O)NC6CC6)cc5F)c4s3)nc2)CC1 [Compound 35-A, 1-Cyclopropyl-3-(3-fluoro-4-(2-(5-((4-(2-hydroxy-2-methylpropanoyl)piperazin-1-yl)methyl)pyridin-2-yl)thieno[3,2-b]pyridin-7-yloxy)phenyl)urea]
